In ChEMBL document CHEMBL1158627, “Non-basic ligands for aminergic GPCRs: the discovery and development diaryl sulfones as selective, orally bioavailable 5-HT2A receptor antagonists for the treatment of sleep disorders” (Bioorg Med Chem Lett, 2010):

Tests used:
[1] = Metabolic stability in human liver microsomes assessed as compound turnover after 0.25 hrs by LC/MS/MS analysis; set-up: dose or concentration left out as unconfirmed
[2] = Plasma concentration in rat at 10 mg/kg, po after 0.5 hrs; type: ADME, organism-based; set-up: dose 10 mg/kg, route oral
Rattus norvegicus [3] = assay: Inhibition of ex vivo receptor occupancy of 5HT2A receptor in rat brain at 10 mg/kg, po after 0.5 hrs; type: functional
[4] = Drug level in rat brain at 10 mg/kg, po after 0.5 hrs; type: ADME, organism-based; set-up: dose 10 mg/kg, route oral; conditions: read-out: Drug uptake
[5] = target: Voltage-gated inwardly rectifying potassium channel KCNH2 (Homo sapiens, UniProt Q12809); assay: Displacement of [3H]-dofetilide from human ERG receptor expressed HEK cells
Sequence of Voltage-gated inwardly rectifying potassium channel KCNH2 (Q12809 whole entry): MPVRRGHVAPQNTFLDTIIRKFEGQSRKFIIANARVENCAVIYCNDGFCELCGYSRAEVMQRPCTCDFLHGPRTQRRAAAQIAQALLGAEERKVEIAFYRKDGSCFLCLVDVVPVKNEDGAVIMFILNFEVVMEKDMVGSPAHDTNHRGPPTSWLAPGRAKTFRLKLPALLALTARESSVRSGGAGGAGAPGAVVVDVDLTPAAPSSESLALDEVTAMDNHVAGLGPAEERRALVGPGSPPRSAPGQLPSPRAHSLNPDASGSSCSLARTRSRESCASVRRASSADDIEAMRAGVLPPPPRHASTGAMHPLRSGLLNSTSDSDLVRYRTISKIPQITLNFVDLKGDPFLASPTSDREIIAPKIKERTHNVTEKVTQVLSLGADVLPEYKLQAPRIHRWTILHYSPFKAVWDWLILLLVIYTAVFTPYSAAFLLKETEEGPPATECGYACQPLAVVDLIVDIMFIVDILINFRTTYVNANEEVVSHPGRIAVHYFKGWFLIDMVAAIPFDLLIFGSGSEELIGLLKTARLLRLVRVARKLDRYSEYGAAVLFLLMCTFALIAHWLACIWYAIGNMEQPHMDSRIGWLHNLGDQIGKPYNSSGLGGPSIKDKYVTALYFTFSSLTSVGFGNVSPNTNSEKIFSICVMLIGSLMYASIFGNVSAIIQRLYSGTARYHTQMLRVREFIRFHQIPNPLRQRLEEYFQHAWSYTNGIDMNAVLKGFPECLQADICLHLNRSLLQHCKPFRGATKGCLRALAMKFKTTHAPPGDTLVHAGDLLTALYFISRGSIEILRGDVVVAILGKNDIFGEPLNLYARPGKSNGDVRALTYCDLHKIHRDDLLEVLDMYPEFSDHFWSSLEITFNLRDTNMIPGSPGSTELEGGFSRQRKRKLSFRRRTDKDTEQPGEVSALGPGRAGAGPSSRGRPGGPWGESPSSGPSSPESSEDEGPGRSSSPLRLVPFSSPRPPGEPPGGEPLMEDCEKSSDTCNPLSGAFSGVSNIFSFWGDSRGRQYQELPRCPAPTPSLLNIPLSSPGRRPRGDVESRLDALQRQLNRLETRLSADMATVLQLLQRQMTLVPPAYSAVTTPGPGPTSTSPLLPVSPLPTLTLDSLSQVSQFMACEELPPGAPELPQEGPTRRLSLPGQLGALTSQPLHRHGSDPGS

[6] = target: 5-hydroxytryptamine receptor 2A (Homo sapiens, UniProt P28223); assay: biochemical
Sequence of 5-hydroxytryptamine receptor 2A (P28223 whole entry): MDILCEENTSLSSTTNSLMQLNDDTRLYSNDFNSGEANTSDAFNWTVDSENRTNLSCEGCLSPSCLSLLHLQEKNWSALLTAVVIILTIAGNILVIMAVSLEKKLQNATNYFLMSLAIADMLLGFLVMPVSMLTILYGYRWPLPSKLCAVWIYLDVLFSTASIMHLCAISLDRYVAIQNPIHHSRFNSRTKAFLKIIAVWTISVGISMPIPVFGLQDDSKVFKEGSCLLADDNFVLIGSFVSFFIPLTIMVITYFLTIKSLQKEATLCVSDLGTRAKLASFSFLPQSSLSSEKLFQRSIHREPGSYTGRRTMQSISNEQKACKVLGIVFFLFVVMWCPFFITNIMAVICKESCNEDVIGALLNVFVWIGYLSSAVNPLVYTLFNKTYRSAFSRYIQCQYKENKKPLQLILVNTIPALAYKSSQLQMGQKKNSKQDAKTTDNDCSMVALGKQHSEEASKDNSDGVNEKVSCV
Description: Displacement of [3H]- ketanserin from human 5HT2A receptor expressed CHO cells

[7] = target: T1, 5-hydroxytryptamine receptor 2C (Homo sapiens, UniProt P28335); assay: biochemical
T1 sequence (P28335 whole entry): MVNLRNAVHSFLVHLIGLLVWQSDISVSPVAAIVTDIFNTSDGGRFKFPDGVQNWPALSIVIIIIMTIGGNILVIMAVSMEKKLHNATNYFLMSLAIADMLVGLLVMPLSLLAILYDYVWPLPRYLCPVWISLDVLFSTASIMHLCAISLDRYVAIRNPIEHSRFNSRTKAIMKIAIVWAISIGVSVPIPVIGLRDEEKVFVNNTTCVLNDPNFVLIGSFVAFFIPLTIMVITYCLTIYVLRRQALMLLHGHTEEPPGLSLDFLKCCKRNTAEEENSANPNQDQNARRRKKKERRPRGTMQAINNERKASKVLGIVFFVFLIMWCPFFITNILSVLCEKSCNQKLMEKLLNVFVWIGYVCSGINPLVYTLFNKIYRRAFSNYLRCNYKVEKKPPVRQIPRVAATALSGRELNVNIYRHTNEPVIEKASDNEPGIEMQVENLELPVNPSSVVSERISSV
Description: Displacement of [3H]mesulergine from human 5HT2C receptor expressed CHO cells

Rattus norvegicus [8] = assay: Ex vivo receptor occupancy of 5HT2A receptor in rat brain at 10 mg/kg, po after 0.5 hrs; type: functional
[9] = Drug level in rat cardiac plasma at 5 mg/kg, po administered with methocel suspension by electrospray mass spectrometry; type: ADME, organism-based; set-up: dose 5 mg/kg, route oral
[10] = Drug level in rat brain at 5 mg/kg, po administered with methocel suspension by electrospray mass spectrometry; type: ADME, organism-based; set-up: dose 5 mg/kg, route oral
[11] = Drug level in rat hepatic portal vein plasma at 5 mg/kg, po administered with methocel suspension by electrospray mass spectrometry; type: ADME, organism-based; set-up: dose 5 mg/kg, route oral
[12] = Drug level in rat cardiac plasma at 5 mg/kg, po administered with imwittor/tween by electrospray mass spectrometry; type: ADME, organism-based; set-up: dose 5 mg/kg, route oral
[13] = Drug level in rat hepatic portal vein plasma at 5 mg/kg, po administered with imwittor/tween by electrospray mass spectrometry; type: ADME, organism-based; set-up: dose 5 mg/kg, route oral
[14] = Drug level in rat brain at 5 mg/kg, po administered with imwittor/tween by electrospray mass spectrometry; type: ADME, organism-based; set-up: dose 5 mg/kg, route oral
[15] = target: Cytochrome P450 2C9 (Homo sapiens) (UniProt P11712); assay: Inhibition of CYP2C9
Sequence of Cytochrome P450 2C9 (Homo sapiens) (P11712 whole entry, looked up): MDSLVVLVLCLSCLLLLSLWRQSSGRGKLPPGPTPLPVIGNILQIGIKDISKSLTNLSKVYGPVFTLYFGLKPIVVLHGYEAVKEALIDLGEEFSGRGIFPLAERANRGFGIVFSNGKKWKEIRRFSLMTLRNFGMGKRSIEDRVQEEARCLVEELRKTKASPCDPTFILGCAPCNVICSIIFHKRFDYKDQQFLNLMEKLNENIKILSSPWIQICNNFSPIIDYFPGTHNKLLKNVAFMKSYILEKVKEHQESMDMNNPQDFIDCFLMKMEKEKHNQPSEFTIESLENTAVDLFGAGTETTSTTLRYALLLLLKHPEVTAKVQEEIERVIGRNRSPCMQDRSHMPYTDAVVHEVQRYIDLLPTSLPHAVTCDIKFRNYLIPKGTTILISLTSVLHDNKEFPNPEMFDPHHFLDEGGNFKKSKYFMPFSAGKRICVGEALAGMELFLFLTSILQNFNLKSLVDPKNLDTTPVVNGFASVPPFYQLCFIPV

[16] = Plasma clearance in dog at 0.1 mg/kg, iv and 1 mg/kg, po; type: ADME, organism-based, Canis lupus familiaris
[17] = Half life in rhesus monkey at 0.1 mg/kg, iv and 1 mg/kg, po; type: ADME, organism-based, Macaca mulatta; conditions: in vivo
[18] = Metabolic stability in dog liver microsomes assessed as compound remaining […] after 0.25 hrs by LC/MS/MS analysis; type: ADME, Canis lupus familiaris, Microsome; conditions: read-out: Stability
[19] = Metabolic stability in rat liver microsomes assessed as compound remaining […] after 0.25 hrs by LC/MS/MS analysis; type: ADME, Microsome; conditions: read-out: Stability
[20] = Half life in Sprague-Dawley rat at 0.1 mg/kg, iv and 1 mg/kg, po; type: ADME, organism-based; conditions: in vivo
[21] = Plasma clearance in Sprague-Dawley rat at 0.1 mg/kg, iv and 1 mg/kg, po; type: ADME, organism-based
[22] = Plasma clearance in rhesus monkey at 0.1 mg/kg, iv and 1 mg/kg, po; type: ADME, organism-based, Macaca mulatta
[23] = Metabolic stability in rhesus monkey liver microsomes assessed as compound remaining […] after 0.25 hrs by LC/MS/MS analysis; type: ADME, Macaca mulatta, Microsome; conditions: read-out: Stability
[24] = Half life in dog at 0.1 mg/kg, iv and 1 mg/kg, po; type: ADME, organism-based, Canis lupus familiaris; conditions: in vivo
Rattus norvegicus [25] = assay: Ex vivo receptor occupancy of 5HT2A receptor in rat brain at 5 mg/kg, po after 0.5 hrs; type: functional

## NC(=O)c1ccc(S(=O)(=O)c2ccc(/C=C/c3ccc(F)cc3F)cc2)cc1
[1]
  turnover at 0.25 h: 0%
[2]
  concentration at 0.5 h: 300 nM
Rattus norvegicus [3]
  inhibition in vivo at 10 mg/kg: 53%
[4]
  concentration at 0.5 h: 620 nM
[5]
  Ki: 7920 nM
[6]
  Ki: 0.65 nM
[7]
  Ki: 41 nM

## NC(=O)c1cccc(S(=O)(=O)c2ccc(/C=C/c3ccc(F)cc3F)cc2)c1
[1]
  turnover at 0.25 h: 3%
[2]
  concentration at 0.5 h: 40 nM
Rattus norvegicus [3]
  inhibition in vivo at 10 mg/kg: 50%
Rattus norvegicus [8]
  Activity: 50%
[4]
  concentration at 0.5 h: 40 nM
[5]
  Ki: > 9000 nM
[6]
  Ki: 0.2 nM
[7]
  Ki: 21 nM

## O=S(=O)(c1ccccc1)c1ccc(/C=C/c2ccc(F)cc2F)cc1
[9]
  AUC: 0.09 µM·h
[1]
  turnover at 0.25 h: 33%
Rattus norvegicus [8]
  Activity: 40%
[10]
  AUC: 0.38 µM·h
[5]
  Ki: 4340 nM
[11]
  AUC: 0.46 µM·h
[6]
  Ki: 1.32 nM
[12]
  AUC: 0.79 µM·h
[13]
  AUC: 6.39 µM·h
[7]
  Ki: 65 nM
[14]
  AUC: 1.96 µM·h

## O=S(=O)(c1ccc(/C=C/c2ccc(F)cc2)cc1)c1ccccc1CO
[15]
  IC50: 100 nM

## NC(=O)c1ccccc1S(=O)(=O)c1ccc(/C=C/c2ccc(F)cc2F)cc1
[16]
  clearance: 0.3 mL/min/kg
[17]
  half-life: 85 h
[1]
  turnover at 0.25 h: 15.8%
[2]
  concentration at 0.5 h: 2730 nM
Rattus norvegicus [3]
  inhibition in vivo at 10 mg/kg: 100%
Rattus norvegicus [8]
  Activity: > 100%
[18]
  remaining at 0.25 h: < 10%
[4]
  concentration at 0.5 h: 5770 nM
[5]
  Ki: > 9000 nM
[19]
  remaining at 0.25 h: 0%
[6]
  Ki: 0.65 nM
[20]
  half-life: 28 h
[21]
  clearance: 3 mL/min/kg
[22]
  clearance: 0.13 mL/min/kg
[23]
  remaining at 0.25 h: 23%
[7]
  Ki: 127 nM
[24]
  half-life: 134 h

## CC(O)c1ccccc1S(=O)(=O)c1ccc(/C=C/c2ccc(F)cc2)cc1 (racemic)
Rattus norvegicus [25]
  Activity: 99%
[1]
  turnover at 0.25 h: < 10%
Rattus norvegicus [8]
  Activity: 85%
[5]
  Ki: 4000 nM
[6]
  Ki: 0.07 nM
[7]
  Ki: 7 nM
